Like-named read-outs stand apart in the source and are kept apart here.
Key:
[1] = test system: HCV 1b-BB7 subgenomic replicon; test: microbe, parasite or virus in culture; type: cell-based, HCV genotype 1b; conditions: Hepatitis C virus, stable replicon
[2] = test system: HCV 1a-H77 subgenomic replicon; test: microbe, parasite or virus in culture; type: cell-based, HCV genotype 1a; conditions: Hepatitis C virus, stable replicon
[3] = target: T1, HCV NS5B polymerase 1b BK strain (Hepatitis C virus genotype 1b, UniProt P26663); test: HCV NS5B polymerase enzymatic inhibition assay, strain 1b BK; type: biochemical; conditions: enzyme, strain 1b BK; read-out: HCV Polymerase Strain 1b BK IC50
T1 construct: six-histidine tag; made in house; host or cells: E. coli
In short: (§1)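 E. coli-expressed NS5B (residues 1-570, His-tagged) transcribed a 2.1 kb HCV 1b negative-strand 3′-end RNA template (5 nM) with 20 μM CTP, 20 μM ATP and 0.284 μM [3H]UTP for 3 h at 30° C. Spermine-precipitated RNA was filter-captured and counted by scintillation; IC50 from nonlinear regression.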

[4] = test system: HCV NS5B polymerase 1a-H77-C316Y; test: biochemical; design: species or system HCV genotype 1a; conditions: ratio of enzyme IC50s, 1a H77-C316Y / 1a H77
In short: as §1

[5] = target: T2, HCV NS5B polymerase 1a-H77-C316Y (Hepatitis C virus genotype 1a, UniProt P27958, C2736Y); test: biochemical; design: species or system HCV genotype 1a
T2 construct: six-histidine tag; made in house; host or cells: E. coli
In short: as §1

[6] = target: T3, HCV NS5B polymerase 1a-H77 (Hepatitis C virus genotype 1a, UniProt P27958); test: biochemical; design: species or system HCV genotype 1a; conditions: enzyme, strain 1a H77; read-out: HCV Polymerase Strain 1a H77 IC50
T3 construct: six-histidine tag; made in house; host or cells: E. coli
In short: as §1

[7] = strain 1b BB7, 5% FBS + 40% human plasma, read-out: 1b BB7 5% FBS + 40% Human Plasma EC50
[8] = strain 1b BB7, 5% FBS, no human plasma, read-out: 1b BB7 5% FBS EC50
[9] = strain 1b BB7, 5% FBS, read-out: 1b BB7 5% FBS EC50
[10] = 5% FBS, absence of human plasma, read-out: Stable Replicon 1a H77 5% FBS EC50
[11] = strain 1a H77, 5% FBS + 40% human plasma, read-out: 1a H77 5% FBS + 40% Human Plasma EC50
[12] = strain 1a H77, 5% FBS, no human plasma, read-out: 1a H77 5% FBS EC50
[13] = strain 1a H77, 5% FBS, read-out: 1a H77 5% FBS EC50

T2 sequence (P27958 2421-2990 C2736Y): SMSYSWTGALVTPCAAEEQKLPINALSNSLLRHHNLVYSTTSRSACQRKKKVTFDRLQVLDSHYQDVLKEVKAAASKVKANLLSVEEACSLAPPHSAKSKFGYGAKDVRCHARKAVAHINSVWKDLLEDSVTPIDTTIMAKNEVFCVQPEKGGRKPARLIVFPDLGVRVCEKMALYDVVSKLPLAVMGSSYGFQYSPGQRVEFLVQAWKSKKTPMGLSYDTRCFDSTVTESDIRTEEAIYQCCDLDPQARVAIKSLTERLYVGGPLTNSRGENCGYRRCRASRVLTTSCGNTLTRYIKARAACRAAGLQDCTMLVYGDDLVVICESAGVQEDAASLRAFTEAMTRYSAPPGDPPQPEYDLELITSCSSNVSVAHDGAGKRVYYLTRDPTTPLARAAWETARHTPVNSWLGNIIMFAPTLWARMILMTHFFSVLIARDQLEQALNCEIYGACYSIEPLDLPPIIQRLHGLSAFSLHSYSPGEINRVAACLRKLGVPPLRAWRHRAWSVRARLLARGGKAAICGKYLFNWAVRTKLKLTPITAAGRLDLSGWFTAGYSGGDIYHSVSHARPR
T1 sequence (P26663 2420-2989): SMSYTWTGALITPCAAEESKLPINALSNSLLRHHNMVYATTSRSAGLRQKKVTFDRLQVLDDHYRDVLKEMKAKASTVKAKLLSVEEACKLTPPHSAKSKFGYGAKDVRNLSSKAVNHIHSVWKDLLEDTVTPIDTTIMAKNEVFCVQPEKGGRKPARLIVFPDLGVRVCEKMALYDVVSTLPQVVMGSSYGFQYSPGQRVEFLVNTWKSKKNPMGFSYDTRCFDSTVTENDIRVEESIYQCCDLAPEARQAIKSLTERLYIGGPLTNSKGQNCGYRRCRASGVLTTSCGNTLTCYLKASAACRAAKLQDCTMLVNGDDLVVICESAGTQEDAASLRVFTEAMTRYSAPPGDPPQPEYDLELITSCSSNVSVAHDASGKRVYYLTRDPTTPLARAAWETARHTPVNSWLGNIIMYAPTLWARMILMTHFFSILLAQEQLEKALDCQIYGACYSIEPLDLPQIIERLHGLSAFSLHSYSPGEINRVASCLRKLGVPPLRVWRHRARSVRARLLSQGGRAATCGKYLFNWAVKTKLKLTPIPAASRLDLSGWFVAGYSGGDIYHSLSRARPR
T3 sequence (P27958 2421-2990): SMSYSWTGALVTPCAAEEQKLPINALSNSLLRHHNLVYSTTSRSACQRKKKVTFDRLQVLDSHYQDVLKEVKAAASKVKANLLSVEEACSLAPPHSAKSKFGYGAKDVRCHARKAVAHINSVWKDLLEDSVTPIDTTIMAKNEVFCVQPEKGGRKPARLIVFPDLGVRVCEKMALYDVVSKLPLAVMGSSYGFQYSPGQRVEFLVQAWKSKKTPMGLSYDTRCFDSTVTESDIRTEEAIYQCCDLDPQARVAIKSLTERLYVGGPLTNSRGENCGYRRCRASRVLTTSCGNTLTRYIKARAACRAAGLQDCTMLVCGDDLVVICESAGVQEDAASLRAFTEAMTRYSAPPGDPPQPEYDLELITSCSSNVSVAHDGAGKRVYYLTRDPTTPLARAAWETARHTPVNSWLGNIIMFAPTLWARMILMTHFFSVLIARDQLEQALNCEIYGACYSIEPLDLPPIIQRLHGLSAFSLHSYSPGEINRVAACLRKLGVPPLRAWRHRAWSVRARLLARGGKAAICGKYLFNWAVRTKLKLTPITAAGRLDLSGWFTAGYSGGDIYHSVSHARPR

Row | SMILES | EC50 [1, 7] | EC50 [1, 8] | EC50 [1, 9] | EC50 [2, 10] | EC50 [2, 11] | EC50 [2, 12] | EC50 [2, 13] | IC50 [3] | C316Y/1a Fold Resistance [4] | IC50 [5] | IC50 [6]
1 | CS(=O)(=O)N(CCCC(=O)O)c1cc2oc(-c3ccc(F)cc3)c(-c3ncc[nH]3)c2cc1C1CC1 [Example 89, 4-{[5-cyclopropyl-2-(4-fluorophenyl)-3-(1H-imidazol-2-yl)-1-benzofuran-6-yl](methylsulfonyl)amino}butanoic acid] | 0.376 µM | 0.0915 µM | 0.0915 µM | 0.269 µM | 2.44 µM | 0.269 µM | 0.269 µM | 0.065 µM | 15 fold | 0.077 µM | 0.005 µM
2 | CS(=O)(=O)N(CC(O)CO)c1cc2oc(-c3ccc(F)cc3)c(-c3ncc[nH]3)c2cc1C1CC1 (centres unmarked) [Example 93, N-[5-cyclopropyl-2-(4-fluorophenyl)-3-(1H-imidazol-2-yl)-1-benzofuran-6-yl]-N-(2,3-dihydroxypropyl)methanesulfonamide] | 0.88 µM | 0.0634 µM | 0.0634 µM | 0.0832 µM | 0.915 µM | 0.0832 µM | 0.0832 µM | 0.117 µM | 320 fold | 1.6 µM | 0.005 µM
3 | CC(C)(O)C(O)CN(c1cc2oc(-c3ccc(F)cc3)c(-c3ncc[nH]3)c2cc1C1CC1)S(C)(=O)=O (centres unmarked) [Example 94, N-[5-cyclopropyl-2-(4-fluorophenyl)-3-(1H-imidazol-2-yl)-1-benzofuran-6-yl]-N-(2,3-dihydroxy-3-methylbutyl)methanesulfonamide] | 0.36 µM | 0.0763 µM | 0.0763 µM | 0.0602 µM | 0.599 µM | 0.0602 µM | 0.0602 µM | 0.028 µM | 107 fold | 1 µM | 0.0094 µM
4 | CC(O)CN(c1cc2oc(-c3ccc(F)cc3)c(-c3ncc[nH]3)c2cc1C1CC1)S(C)(=O)=O (centres unmarked) [Example 98, N-[5-cyclopropyl-2-(4-fluorophenyl)-3-(1H-imidazol-2-yl)-1-benzofuran-6-yl]-N-(2-hydroxypropyl)methanesulfonamide] | 2.06 µM | 0.136 µM | 0.136 µM | 0.158 µM | 1.63 µM | 0.158 µM | 0.158 µM | 0.24 µM | 131 fold | 3.2 µM | 0.0245 µM
5 | CS(=O)(=O)N(CCCC(=O)N1CCOCC1)c1cc2oc(-c3ccc(F)cc3)c(-c3ncc[nH]3)c2cc1C1CC1 [Example 103, N-[5-cyclopropyl-2-(4-fluorophenyl)-3-(1H-imidazol-2-yl)-1-benzofuran-6-yl]-N-[4-(morpholin-4-yl)-4-oxobutyl]methanesulfonamide] | 0.114 µM | 0.0139 µM | 0.0139 µM | 0.0446 µM | 0.563 µM | 0.0446 µM | 0.0446 µM | 0.055 µM | 50 fold | 0.4 µM | 0.0079 µM
6 | CS(=O)(=O)N(CCCC(=O)N1CCCCC1)c1cc2oc(-c3ccc(F)cc3)c(-c3ncc[nH]3)c2cc1C1CC1 [Example 104, N-[5-cyclopropyl-2-(4-fluorophenyl)-3-(1H-imidazol-2-yl)-1-benzofuran-6-yl]-N-[4-oxo-4-(piperidin-1-yl)butyl]methanesulfonamide] | 0.268 µM | 0.0133 µM | 0.0133 µM | 0.0319 µM | 0.502 µM | 0.0319 µM | 0.0319 µM | 0.052 µM | 26 fold | 0.18 µM | 0.0069 µM
7 | CS(=O)(=O)NC(=O)CCCN(c1cc2oc(-c3ccc(F)cc3)c(-c3ncc[nH]3)c2cc1C1CC1)S(C)(=O)=O [Example 105, 4-{[5-cyclopropyl-2-(4-fluorophenyl)-3-(1H-imidazol-2-yl)-1-benzofuran-6-yl](methylsulfonyl)amino}-N-(methylsulfonyl)butanamide] | 0.519 µM | 0.0686 µM | 0.0686 µM | 0.108 µM | 1.06 µM | 0.108 µM | 0.108 µM | 0.016 µM | 14 fold | 0.111 µM | 0.008 µM
8 | CC(C)(O)C(=O)CCN(c1cc2oc(-c3ccc(F)cc3)c(-c3ncc[nH]3)c2cc1C1CC1)S(C)(=O)=O [Example 106, N-[5-cyclopropyl-2-(4-fluorophenyl)-3-(1H-imidazol-2-yl)-1-benzofuran-6-yl]-N-(4-hydroxy-4-methyl-3-oxopentyl)methanesulfonamide] | 0.221 µM | 0.0273 µM | 0.0273 µM | 0.0544 µM | 0.915 µM | 0.0544 µM | 0.0544 µM | 0.019 µM | 14 fold | 0.101 µM | 0.0073 µM
9 | CS(=O)(=O)N(CCC(O)CO)c1cc2oc(-c3ccc(F)cc3)c(-c3ncc[nH]3)c2cc1C1CC1 (centres unmarked) [Example 110, N-[5-cyclopropyl-2-(4-fluorophenyl)-3-(1H-imidazol-2-yl)-1-benzofuran-6-yl]-N-(3,4-dihydroxybutyl)methanesulfonamide] | 0.315 µM | 0.0167 µM | 0.0167 µM | 0.0143 µM | 0.206 µM | 0.0143 µM | 0.0143 µM | 0.012 µM | 19 fold | 0.125 µM | 0.0065 µM
10 | CS(=O)(=O)N(CCN)c1cc2oc(-c3ccc(F)cc3)c(-c3ncc[nH]3)c2cc1C1CC1 [Example 111, N-(2-aminoethyl)-N-[5-cyclopropyl-2-(4-fluorophenyl)-3-(1H-imidazol-2-yl)-1-benzofuran-6-yl]methanesulfonamide] | 0.092 µM | 0.0404 µM | 0.0404 µM | 0.152 µM | 1 µM | 0.152 µM | 0.152 µM | 0.111 µM | 201 fold | 2 µM | 0.0099 µM
11 | CS(=O)(=O)N(CCCN)c1cc2oc(-c3ccc(F)cc3)c(-c3ncc[nH]3)c2cc1C1CC1 [Example 112, N-(3-aminopropyl)-N-[5-cyclopropyl-2-(4-fluorophenyl)-3-(1H-imidazol-2-yl)-1-benzofuran-6-yl]methanesulfonamide] | 0.101 µM | 0.034 µM | 0.034 µM | 0.262 µM | 1.03 µM | 0.262 µM | 0.262 µM | 0.051 µM | 82 fold | 0.868 µM | 0.0106 µM
12 | COc1ccc(CN(c2cc3oc(-c4ccc(F)cc4)c(-c4nc(Cl)c[nH]4)c3cc2C2CC2)S(C)(=O)=O)cc1 [Example 159, N-[3-(4-chloro-1H-imidazol-2-yl)-5-cyclopropyl-2-(4-fluorophenyl)-1-benzofuran-6-yl]-N-(4-methoxybenzyl)methanesulfonamide] | 10 µM | 0.544 µM | 0.544 µM | 0.99 µM | 10 µM | 0.99 µM | 0.99 µM | 0.438 µM | 178 fold | 8 µM | 0.045 µM
13 | CC(C)CCN(c1cc2oc(-c3ccc(F)cc3)c(-c3nccc(=O)[nH]3)c2cc1C1CC1)S(C)(=O)=O [Example 161, N-[5-cyclopropyl-2-(4-fluorophenyl)-3-(6-oxo-1,6-dihydropyrimidin-2-yl)-1-benzofuran-6-yl]-N-(3-methylbutyl)methanesulfonamide] | 10 µM | 0.188 µM | 0.188 µM | 0.124 µM | 7.91 µM | 0.124 µM | 0.124 µM | 0.791 µM | 5 fold | 0.219 µM | 0.0475 µM
14 | COc1ccc(CN(c2cc3oc(-c4ccc(F)cc4)c(-c4ncc[nH]4)c3cc2OC(C)C)S(C)(=O)=O)cc1 [Example 170, N-[2-(4-fluorophenyl)-3-(1H-imidazol-2-yl)-5-isopropoxy-1-benzofuran-6-yl]-N-(4-methoxybenzyl)methanesulfonamide] | – | 0.121 µM | 0.121 µM | 0.54 µM | – | 0.54 µM | 0.54 µM | 0.338 µM | 556 fold | 20 µM | 0.036 µM

From patent US20160355530A1, “HEPATITIS C INHIBITORS AND USES THEREOF” (AbbVie Inc., priority 2010, published 2016)
